{"source": "patent US12433835B2", "about": "“Cosmetic composition and treatment for treating skin sagging” (Sederma, priority 2020, dated 2025)", "system": "Fibroblasts", "experiment": "Contraction of collagen lattice by MGO-stressed fibroblasts", "assay_type": "cell-based", "details": "MGO contact 2 days, with or without extract at 0.5%; control without MGO = 100%; n=3", "excerpt": "The contraction function of fibroblasts is important for ensuring a good elasticity to the skin. The application on fibroblasts of the glycating substance (MGO: methylglyoxal) allows to mimic in accelerate the loss of contractility of fibroblasts occurring during aging. Fibroblasts were brought into contact with the MGO for 2 days, in nontoxic quantity, with or without the extract according to the invention. After this contact, the cells were included in a collagen gel to form a dermis equivalent called lattice. Fibroblasts anchor themselves to the collagens and begin to contract the gel like they do in the skin. This contraction was followed after 16 h and measured using an ImageQuant LAS4000 imager by following the modification on the gel surface.", "data": [{"smiles": "CC(=O)C=O", "note": "[MGO, methylglyoxal]", "values": [{"measurement": "Gel contraction at 16 h (%)", "result": 59.9, "unit": "%"}]}]}
